Converted amounts (≈) assume the structure as drawn.
Experiments:
Giardia intestinalis = test: Antiprotozoal activity against clinical isolates of Giardia lamblia IMSS:8901:1; format: functional, organism-based; settings: Giardia duodenalis
Entamoeba histolytica = test: Antiprotozoal activity against clinical isolates of Entamoeba histolytica HM-1:IMSS; format: functional, organism-based
SK-LU-1 = test: Cytotoxicity against human SKLU1 cells after 48 hrs by SRB method; format: functional, cell-based; settings: SK-LU-1, 48 h
Mus musculus = test: Antiinflammatory activity against TPA-induced CD-1 mouse ear edema model assessed as swelling per ear after 4 hrs relative to control; format: functional, organism-based
PC-3 = test: Cytotoxicity against human PC3 cells after 48 hrs by SRB method; format: functional, cell-based; settings: PC-3, 48 h
K562 = test: Cytotoxicity against human K562 cells after 48 hrs by SRB method; format: functional, cell-based; settings: K562, 48 h
U-251 = test: Cytotoxicity against human U251 cells after 48 hrs by SRB method; format: functional, cell-based; settings: U-251, 48 h
HCT-15 = test: Cytotoxicity against human HCT15 cells after 48 hrs by SRB method; format: functional, cell-based; settings: HCT-15, 48 h
MCF7 = test: Cytotoxicity against human MCF7 cells after 48 hrs by SRB method; format: functional, cell-based; settings: MCF7, 48 h

Row | SMILES | IC50 (Giardia intestinalis) [µg/mL] | IC50 (Entamoeba histolytica) [µg/mL] | IC50 (SK-LU-1) [µM] | IC50 (Mus musculus) [µmol] | IC50 (PC-3) [µM] | IC50 (K562) [µM] | IC50 (U-251) [µM] | IC50 (HCT-15) [µM] | IC50 (MCF7) [µM]
1 | C[C@]12C[C@H](c3ccoc3)OC(=O)[C@@]1(O)CC[C@@]13COC(=O)[C@H]1CC=C[C@]32O | 85.8 (≈ 229 µM) | 79.7 (≈ 213 µM) |  |  |  |  |  |  | 
2 | C[C@]12C[C@H](c3ccoc3)OC(=O)[C@@]1(O)CC[C@@]13COC(=O)[C@H]1CC=C[C@H]32 | 73.1 (≈ 204 µM) | 63.3 (≈ 177 µM) | > 50 | > 1 | > 50 | > 50 | > 50 | > 50 | > 50
3 | C[C@]12C[C@H](c3ccoc3)OC(=O)[C@H]1CC[C@@]13COC(=O)[C@@H]1C=C[C@@H](O)[C@H]23 | 71.7 (≈ 200 µM) | 57.4 (≈ 160 µM) |  |  |  |  |  |  | 
4 | C[C@]12C[C@H](c3ccoc3)OC(=O)[C@H]1CC[C@@]13COC(=O)[C@H]1C[C@@H]1O[C@@H]1[C@]32O | 63.3 (≈ 169 µM) | 56.8 (≈ 152 µM) | > 50 | > 1 | > 50 | > 50 | > 50 | > 50 | > 50
5 | C[C@]12C[C@H](c3ccoc3)OC(=O)[C@H]1CC[C@@]13COC(=O)[C@H]1CC=C[C@]32O | 94.8 (≈ 265 µM) | 84.7 (≈ 236 µM) | > 50 | > 1 | > 50 | > 50 | > 50 | > 50 | > 50
6 | C[C@]12C[C@H](c3ccoc3)OC(=O)[C@@]1(O)CC[C@@]13COC(=O)C1=CC[C@H]1O[C@]132 [TEHUANINE G] | 86.4 (≈ 232 µM) | 71.2 (≈ 191 µM) |  |  |  |  |  |  | 
7 | NCCc1ccc(O)cc1 [TYRAMINE] | 68.9 (≈ 502 µM) | 54.2 (≈ 395 µM) |  |  |  |  |  |  | 
8 | C[C@]12C[C@H](c3ccoc3)OC(=O)[C@@]1(O)CC[C@@]13COC(=O)[C@@H]1C=CC[C@@H]32 | 42.4 (≈ 118 µM) | 56.5 (≈ 158 µM) | > 50 | > 1 | > 50 | > 50 | > 50 | > 50 | > 50
9 | C[C@]12C[C@H](c3ccoc3)OC(=O)[C@@]1(O)CC[C@@]13COC(=O)[C@]1(O)CC=C[C@]23O | 82.1 (≈ 210 µM) | 76.3 (≈ 195 µM) | > 50 | > 1 | > 50 | > 50 | > 50 | > 50 | > 50
10 | Oc1cc(O)c2c(c1)O[C@H](c1ccc(O)c(O)c1)[C@@H](O)C2 [CIANIDANOL] | 33.9 (≈ 117 µM) | 65.6 (≈ 226 µM) |  |  |  |  |  |  | 

Reference: ChEMBL document CHEMBL2429778, “Hydroxyclerodanes from Salvia shannoni” (J Nat Prod, 2013)
